The structures appear in SMILES notation. Where two headings read alike, the source gives them in different places.

The subject of series [1] is transplanted human mammary carcinoma. Conditions: cited from earlier work.
Series [2] deals with K562 cells (human chronic myelogenous leukemia cell line), imatinib-resistant. The series can be described thus: MTT cell survival assay in K562 CML cells, imatinib-resistant line. Conditions: 48 hours; for % Viability: Imatinib 0 μM. It counts as cell-based. On the procedure: (§1) K562 cells (a human chronic myelogenous leukemia (CML) cell line), were suspended in RPMI 1640 Medium (Life Technologies Inc.), supplemented with 10% FCS, 2 mM L-glutamine in 96-well plates (2×10^4 cells per well). Both an imatinib-sensitive and an imatinib-resistant cell line were used. Each well was treated with β-lapachone and/or imatinib. Each condition was run in triplicate. After incubation for 48 hours, cell survival was assayed using MTT to determine cell survival. The plates were read using a plate reader at 570 nm.
In general terms: Formazan colour is commonly taken as a measure of viable cells.

The subject of series [3] is ARH-77 cells, a human multiple myeloma cell line. The series can be described thus: MTT cell survival assay in ARH-77 multiple myeloma cells. How it is done:
β-lapachone was dissolved at 20 mM concentration in dimethyl sulfoxide (DMSO), aliquoted, and stored at −20° C. for cell culture use. Imatinib was dissolved at 100 mM concentration in dimethyl sulfoxide (DMSO).
Each well was treated with β-lapachone and/or imatinib. Each condition was run in triplicate. […] The plates were read using a plate reader at 570 nm.

In series [4] the test system is K562 cells (human chronic myelogenous leukemia cell line), imatinib-sensitive. The series can be described thus: MTT cell survival assay in K562 CML cells, imatinib-sensitive line. On the procedure:
as §1

For series [5] the following is noted: cited from earlier work.

Consider `O=CN/C=C/c1cc(O)ccc1O` [erbstatin], for which the tumor growth entry is given as “without effect” in series [1] (another carcinoma which does not express the EGF receptor) and “selectively attenuates the growth” in series [1] (carcinoma which expresses epidermal growth factor receptor tyrosine kinase, athymic nude mice).

In general, viability refers to a read-out of living cells in per cent, often relative to untreated cells. `Cc1ccc(NC(=O)c2ccc(CN3CCN(C)CC3)cc2)cc1Nc1nccc(-c2cccnc2)n1` [imatinib, Imatinib]: the viability at 1 µM came to 94.7% in series [2] (Homo sapiens, K562, Imatinib 1 μM, B-lapachon 0 μM) and 36.6% in series [4] (Homo sapiens, K562, 48 h). The viability at 5 µM in series [2] (Homo sapiens, K562, Imatinib 5 μM, B-lapachon 0 μM) turned out to be 57.3%; in series [4] (Homo sapiens, K562, 48 h) it was 20.9%. Also, the viability at 10 µM in series [2] (Homo sapiens, K562, Imatinib 10 μM, B-lapachon 0 μM) came out at 22.5%; in series [4] (Homo sapiens, K562, 48 h), 13.9%. Further, the viability at 20 µM turned out to be 11.5% in series [2] (Homo sapiens, K562, Imatinib 20 μM, B-lapachon 0 μM) and 0.9% in series [4] (Homo sapiens, K562, 48 h). For the same compound, the viability at 40 µM in series [2] (Homo sapiens, K562, Imatinib 40 μM, B-lapachon 0 μM) amounted to 4.9%. Also, the “sensitivity to imatinib alone, compared with imatinib-sensitive line” value in series [2] (imatinib alone) is recorded as “less sensitivity”. Besides, the “% Viability” value is 66.3% in series [3] (STI571 1 μM, Co-501 0 μM, 24 hours); 80.0% in series [3] (STI571 2 μM, Co-501 0 μM, 24 hours); 85.7% in series [3] (STI571 5 μM, Co-501 0 μM, 24 hours); 91% in series [3] (STI571 10 μM, Co-501 0 μM, 24 hours); 47% in series [3] (STI571 20 μM, Co-501 0 μM, 24 hours); 46.7% in series [3] (STI571 20 μM, Co-501 0 μM, 24 hours, listed as STI571). In addition, the “% Viability” value in series [3] (STI571 50 μM, Co-501 0 μM, 24 hours) was determined as 10.0%. Also, the viability at 0.5 µM in series [4] (Homo sapiens, K562, 48 h) was found to be 57.2%.

In the case of `CC1(C)CCC2=C(O1)c1ccccc1C(=O)C2=O` [β-lapachone, 3,4-dihydro-2,2-dimethyl-2H-naphtho[1,2-b]pyran-5,6-dione], the “% Viability” value turned out to be 80.5% in series [2] (B-lapachon 0.5 μM); 79% in series [2] (B-lapachon 1 μM); 45% in series [2] (B-lapachon 2 μM); 0.56% in series [2] (B-lapachon 4 μM); 34.3% in series [3] (STI571 0 μM, Co-501 2 μM, 24 hours); 91.4% in series [3] (human, 24 h, 1 μM). Further, the “% Viability” value in series [4] (Imatinib 0 μM, B-lapachone 1 μM, 48 hours) was 36.2%; in series [4] (Imatinib 0 μM, B-lapachone 2 μM, 48 hours), 11.9%; in series [4] (Imatinib 0 μM, B-lapachone 4 μM, 48 hours) it was 1.0%; in series [4] (human, 48 h, 0.5 μM), 58.3%. Moreover, in series [3] (Homo sapiens, ARH-77, 24 h, STI571 0 μM, Co-501 1 μM, 24 hours), the viability at 1 µM came out at 91%. In series [3] (Homo sapiens, ARH-77, 24 h, STI571 0 μM, Co-501 2 μM, 24 hours), this compound had a viability at 2 µM of 34%. Further, in series [3] (Homo sapiens, ARH-77, 24 h, STI571 0 μM, Co-501 4 μM, 24 hours), the viability at 4 µM is 40%. In addition, the water solubility result in series [5] was “water insolubility”.

(Values after patent US20050119352A1, “Method of treating cancers” (priority 2002, published 2005).)
